This is an account of results in ChEMBL document CHEMBL1134578, “X-Ray crystal structures of Candida albicans dihydrofolate reductase: high resolution ternary complexes in which the dihydronicotinamide moiety of NADPH is displaced by an inhibitor” (J Med Chem, 2001).

In test [1] the target is T1, Dihydrofolate reductase (Candida albicans, UniProt P22906).
T1 sequence (P22906 whole entry): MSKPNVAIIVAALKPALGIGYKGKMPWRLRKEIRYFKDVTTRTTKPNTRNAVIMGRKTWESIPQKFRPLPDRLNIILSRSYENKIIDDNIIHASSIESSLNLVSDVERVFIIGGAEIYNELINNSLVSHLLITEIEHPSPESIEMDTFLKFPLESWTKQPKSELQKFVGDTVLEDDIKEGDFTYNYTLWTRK
In words: Inhibitory activity against Candida albicans Dihydrofolate Reductase (DHFR).

The nature of test [2]: Selective ratio of Human / Candida albicans was determined.
Test [3] has as its target T2, Dihydrofolate reductase (Homo sapiens, UniProt P00374).
T2 sequence (P00374 whole entry): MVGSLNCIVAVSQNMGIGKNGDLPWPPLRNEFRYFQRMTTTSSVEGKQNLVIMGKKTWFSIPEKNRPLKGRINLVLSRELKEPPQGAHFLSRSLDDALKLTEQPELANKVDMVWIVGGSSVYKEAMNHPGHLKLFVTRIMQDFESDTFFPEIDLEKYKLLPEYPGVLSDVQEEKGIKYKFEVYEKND
The test can be described thus: Inhibitory activity against recombinant human dihydrofolate reductase.

Each structure is given as a SMILES string.

Regarding `CCC(CC)n1ccc2c3c(N)nc(N)nc3ccc21`, the IC50 in test [1] came out at 4 nM; in test [3], 6.6 nM. The SI in test [2] was found to be 1.7.

The term IC50 denotes the concentration at which inhibition is half-maximal.
